Source: patent US9394304B2, “Imidazopyridine derivatives” (Hoffmann-La Roche Inc., priority 2013, dated 2016)

Molecular target: h-TRPA1 (Homo sapiens (Human), UniProt O75762)
Experiment: Dose response calcium flux (FLIPR) assay, ChanTest hTRPA1-CHO stably transfected cell line, cinnamaldehyde agonist
Assay type: cell-based
Conditions: for inhibition at 1 µM / inhibition at 30 µM / inhibition at 3 µM / inhibition at 10 µM: % inhibition of the inhibitor control, read-out: Inhibition % @ concentration; for IC50: CHO-K1 Tet-On TRPA1 cells, calcium flux, 100 uM cinnamaldehyde
Procedure: IC50 Determinations of Exemplified Compounds
Dose Response Assay: ChanTest hTRPA1-CHO Stably Transfected Cell Line
To induce expression, tetracycline was added to blasticidin/zeocin-free media at a final concentration of 1 ug/ml. Experiments were run at 24 hours post induction.
Plating Conditions CHOK1/TRPA1 Cells:
Harvested cells with 0.025% trypsin/EDTA.
Resuspended cells in growth media without selection antibiotics.
Measured cell density and diluted to 2.4×10^5 cells/ml in media containing 1 ug/ml Doxycycline Plate 25 ul/well into 384 well black/clear tissue culture-treated plates.
Incubated overnight at 37° C.
Replacement Buffer: Hank's Balanced Salt Solution, 20 mM HEPES along with 0.005% BSA and 2× Probenecid
Dye Loading Buffer: Cal-3 NW Calcium dye was prepared by dissolving the contents of one vial with 500 ml Hank's Balanced Salt Solution containing 20 mM HEPES. • Control compounds for CHOK1/TRPA1 cells:
AP-18, stock 10 mM, prepare 3.5× compound dilution in a Compound Buffer (HBSS/20 mM HEPES/0.005% BSA)—final concentration 10 uM.
Working solution 4.5× (final 100 uM in Compound Buffer: HBSS/20 mM HEPES/0.005% BSA)
Compounds dilutions were prepared from 5 or 10 mM stock (100% DMSO):
Compounds were tested at either 20 μM three folds dilution 11 steps out or 30 μM two folds dilution 11 steps out.
3 μl of diluted compound were transferred into Weidmann 384-well plate in duplicates side-by-side.
Compound plates were resuspended with 100 ul of HBSS/20 mM HEPES/0.005% BSA buffer (Compound Buffer):
Growth media was removed from the cell plates (20 ul) and 20 ul of the Replacement Buffer was added followed by addition of 25 ul of diluted dye. All three steps were performed using a Plate Washer BioTek 407. The plates were then incubated for 30′ at RT.
After incubation, both the cell and compound plates were brought to the FLIPR and 20 ul of the diluted compounds/antagonist/bk were transferred to the cell plates by the FLIPR. Plates were then incubated for 30′ at room temperature. After 30′ incubation, plates were returned to the FLIPR and 20 ul of 4.5× Cinnamaldehyde was added to the cell plates. During the compound addition as well as agonist addition, fluorescence readings were taken simultaneously from all 384 wells of the cell plate every 1.5 seconds. Five readings were taken to establish a stable baseline, then 20 ul of sample was rapidly (30 ul/sec) and simultaneously added to each well of the cell plate. The fluorescence was continuously monitored before, during and after sample/agonist addition for a total elapsed time of 100 seconds (compound addition) and 120 seconds (agonist addition). Responses (increase in peak fluorescence) in each well following agonist addition was determined. The initial fluorescence reading from each well, prior to ligand stimulation, was used a zero baseline value for the data from that well.

Sequence of h-TRPA1 (O75762 whole entry): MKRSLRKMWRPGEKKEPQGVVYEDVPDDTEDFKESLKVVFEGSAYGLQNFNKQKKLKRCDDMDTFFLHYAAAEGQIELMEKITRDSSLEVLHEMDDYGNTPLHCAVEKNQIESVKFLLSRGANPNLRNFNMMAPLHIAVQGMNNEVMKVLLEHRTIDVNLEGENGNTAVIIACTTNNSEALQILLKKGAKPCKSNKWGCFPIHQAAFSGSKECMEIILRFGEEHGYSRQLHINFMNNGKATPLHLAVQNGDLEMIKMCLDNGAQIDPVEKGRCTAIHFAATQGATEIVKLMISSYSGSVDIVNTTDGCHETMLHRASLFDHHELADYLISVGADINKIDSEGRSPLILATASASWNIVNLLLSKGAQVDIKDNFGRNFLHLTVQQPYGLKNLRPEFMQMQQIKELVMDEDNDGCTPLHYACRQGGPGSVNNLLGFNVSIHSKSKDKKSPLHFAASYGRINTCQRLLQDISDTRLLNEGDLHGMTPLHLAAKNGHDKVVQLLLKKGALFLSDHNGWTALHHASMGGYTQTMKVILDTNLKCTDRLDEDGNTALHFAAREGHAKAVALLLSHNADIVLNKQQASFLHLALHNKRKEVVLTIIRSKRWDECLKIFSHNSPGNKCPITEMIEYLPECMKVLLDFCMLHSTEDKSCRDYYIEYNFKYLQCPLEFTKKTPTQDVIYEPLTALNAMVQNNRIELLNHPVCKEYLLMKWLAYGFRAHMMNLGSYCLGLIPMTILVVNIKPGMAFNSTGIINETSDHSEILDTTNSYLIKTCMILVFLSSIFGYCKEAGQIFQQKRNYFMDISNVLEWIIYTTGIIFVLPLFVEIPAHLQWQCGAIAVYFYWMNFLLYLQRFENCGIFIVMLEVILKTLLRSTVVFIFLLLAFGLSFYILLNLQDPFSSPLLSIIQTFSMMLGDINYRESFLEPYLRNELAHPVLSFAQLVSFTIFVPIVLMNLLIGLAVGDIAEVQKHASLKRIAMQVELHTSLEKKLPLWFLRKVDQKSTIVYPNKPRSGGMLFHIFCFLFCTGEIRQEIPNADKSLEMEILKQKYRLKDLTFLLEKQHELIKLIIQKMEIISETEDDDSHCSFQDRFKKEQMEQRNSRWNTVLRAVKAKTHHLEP

Compound | inhibition at 1 µM [%] | IC50 [µM] | inhibition at 30 µM [%] | inhibition at 3 µM [%] | inhibition at 10 µM [%]
CC(C)Nc1c(-c2cccc(Cl)c2)nc2ccc(Br)cn12 [Example 1] | 100 | 0.132 | – | – | –
COC(=O)CNc1c(-c2cccc(F)c2)nc2ccc(F)cn12 [Example 3, [6-Fluoro-2-(3-fluoro-phenyl)-imidazo[1,2-a]pyridin-3-ylamino]-acetic acid methyl ester] | – | 3.29 | 74.3 | – | –
CC(C)(C)Nc1c(-c2cccc(C#N)c2)nc2ccc(C(F)(F)F)cn12 [Example 5, 3-(3-tert-Butylamino-6-trifluoromethyl-imidazo[1,2-a]pyridin-2-yl)-benzonitrile] | – | 0.854 | 100 | – | –
CC(C)(C)Nc1c(-c2cccc(C#N)c2)nc2ccc(Cl)cn12 [Example 6, 3-(3-tert-Butylamino-6-chloro-imidazo[1,2-a]pyridin-2-yl)-benzonitrile] | – | 2.13 | – | – | 90
Cc1cc2nc(-c3cccc(Cl)c3)c(NC(C)(C)C)n2cc1Br [Example 9, [6-Bromo-2-(3-chloro-phenyl)-7-methyl-imidazo[1,2-a]pyridin-3-yl]-tert-butyl-amine] | – | 0.229 | 100 | – | –
Cc1cc(Br)cn2c(NC(C)(C)C)c(-c3cccc(Cl)c3)nc12 [Example 10, [6-Bromo-2-(3-chloro-phenyl)-8-methyl-imidazo[1,2-a]pyridin-3-yl]-tert-butyl-amine] | – | 0.221 | – | – | 100
CC(C)(C)Nc1c(-c2cc(Cl)cc(Cl)c2)nc2ccc(C(F)(F)F)cn12 [Example 11, tert-Butyl-[2-(3,5-dichloro-phenyl)-6-trifluoromethyl-imidazo[1,2-a]pyridin-3-yl]-amine] | – | 1.33 | 98 | – | –
CCNc1c(-c2cccc(Cl)c2)nc2ccc(C(F)(F)F)cn12 [Example 14, [2-(3-Chloro-phenyl)-6-trifluoromethyl-imidazo[1,2-a]pyridin-3-yl]-ethyl-amine] | – | 2.07 | 100 | – | –
C#Cc1cccc(-c2nc3ccc(C(F)(F)F)cn3c2NC(C)C)c1 [Example 15, [2-(3-Ethynyl-phenyl)-6-trifluoromethyl-imidazo[1,2-a]pyridin-3-yl]-isopropyl-amine] | – | 0.082 | – | – | 100
CC(C)(C)Nc1c(-c2cccc(C#N)c2)nc2ccc(F)cn12 [Example 18, 3-(3-tert-Butylamino-6-fluoro-imidazo[1,2-a]pyridin-2-yl)-benzonitrile] | – | 20.4 | 80.9 | – | –

More lines, in order of falling IC50, values ahead:

inhibition at 1 µM [%] | IC50 [µM] | inhibition at 30 µM [%] | inhibition at 3 µM [%] | inhibition at 10 µM [%] | Compound
– | 1.59 | – | – | 100 | Clc1cccc(-c2nc3ccc(Cl)cn3c2NC2CC2)c1 [Example 7, [6-Chloro-2-(3-chloro-phenyl)-imidazo[1,2-a]pyridin-3-yl]-cyclopropyl-amine]
– | 1.33 | – | 100 | – | CC(C)(C)Nc1c(-c2cccc(F)c2)nc2ccc(C(F)(F)F)cn12 [Example 4, tert-Butyl-[2-(3-fluoro-phenyl)-6-trifluoromethyl-imidazo[1,2-a]pyridin-3-yl]-amine]
– | 1.11 | 100 | – | – | CC(C)(C)Nc1c(-c2cccc(Cl)c2)nc2cc(C(F)(F)F)ccn12 [Example 13, tert-Butyl-[2-(3-chloro-phenyl)-7-trifluoromethyl-imidazo[1,2-a]pyridin-3-yl]-amine]
– | 1.09 | – | 100 | – | CC(C)(C)Nc1c(-c2cccc(Cl)c2)nc2c(Br)cc(Cl)cn12 [Example 8, [8-Bromo-6-chloro-2-(3-chloro-phenyl)-imidazo[1,2-a]pyridin-3-yl]-tert-butyl-amine]
– | 0.264 | – | – | 100 | CC(C)(C)Nc1c(-c2cccc(Br)c2)nc2ccc(C(F)(F)F)cn12 [Example 17, [2-(3-Bromo-phenyl)-6-trifluoromethyl-imidazo[1,2-a]pyridin-3-yl]-tert-butyl-amine]
– | 0.195 | 100 | – | – | CC(C)Nc1c(-c2cccc(Cl)c2)nc2ccc(Cl)cn12 [Example 2, [6-Chloro-2-(3-chloro-phenyl)-imidazo[1,2-a]pyridin-3-yl]-isopropyl-amine]
– | 0.143 | – | 100 | – | CC(C)Nc1c(-c2cccc(Cl)c2)nc2ccc(C(F)(F)F)cn12 [Example 16, [2-(3-Chloro-phenyl)-6-trifluoromethyl-imidazo[1,2-a]pyridin-3-yl]-isopropyl-amine]
100 | 0.11 | – | – | – | C#Cc1cccc(-c2nc3ccc(C(F)(F)F)cn3c2NC(C)(C)C)c1 [Example 12, tert-Butyl-[2-(3-ethynyl-phenyl)-6-trifluoromethyl-imidazo[1,2-a]pyridin-3-yl]-amine]
